From PubChem BioAssay (NCI)
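In this assay, cells in 96-well plates receive the compound at five concentrations for 48 hours. Endpoints are linearly interpolated between the surrounding concentrations. At the TGI there is no net growth.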

Key:
Experiment in all cases: inhibition of tumour cell growth, NCI panel, 48 h
[1] = system: K-562 leukemia
[2] = system: MDA-MB-231 breast
[3] = system: OVCAR-4 ovarian
[4] = system: OVCAR-5 ovarian
[5] = system: SF-268 CNS
[6] = system: SF-539 CNS
[7] = system: UACC-62 melanoma
[8] = system: EKVX NSCLC
[9] = system: HCC-2998 colon
[10] = system: RPMI-8226 leukemia

Molecule CNc1ccc(C(=O)CC(O)CCC(C)C2OC(=O)CC(O)CC(=O)CC(O)CC(O)CC(O)CC(O)CC3(O)CC(O)C(C(=O)NCCN(C)C)C(CC(OC4OC(C)C(O)C(NC(=O)CN5CCN(C)CC5)C4O)/C=C/C=C/C=C/C=C\C=C/C=C/C=C/C2C)O3)cc1 (centres undefined) has a TGI [1] of over 100 µM, a TGI [2] of over 100 µM and a TGI [3] of over 100 µM. For the same molecule, the TGI [4] was over 100 µM, the TGI [5] was over 100 µM and the TGI [6] was over 100 µM. It also gave a TGI [7] of over 100 µM.

CN(C(=O)C1=CCC2(CC1)OCCO2)c1ccccc1OS(=O)(=O)C(F)(F)F gave a TGI [8] of over 100 µM, a TGI [9] of over 100 µM and a TGI [1] of over 100 µM. For the same molecule, the TGI [2] was over 100 µM, the TGI [3] was over 100 µM and the TGI [4] was over 100 µM. It also gave a TGI [10] of over 100 µM, a TGI [5] of 97.6 µM and a TGI [7] of over 100 µM.

COc1cccc2c1OC(c1ccc(Cl)cc1)C([N+](=O)[O-])=C2 (centres undefined) showed a TGI [8] of 24.2 µM, a TGI [1] of 24.3 µM and a TGI [2] of 13.8 µM. It also gave a TGI [3] of 6.2 µM, a TGI [4] of 7.84 µM and a TGI [5] of 13.9 µM. For the same molecule, the TGI [7] was 10.4 µM.

With CN=c1nc2sc3c(c2c(NC(=S)NC)s1)CCCC3 the TGI [8] was over 100 µM, the TGI [9] was over 100 µM and the TGI [1] was over 100 µM. For the same molecule, the TGI [2] was over 100 µM, the TGI [3] was over 100 µM and the TGI [4] was over 100 µM. The TGI [10] was over 100 µM, the TGI [5] was 87.5 µM and the TGI [7] was over 100 µM.

In the case of COc1ccc(N2C(=O)/C(=C(\C)c3cc4ccccc4oc3=O)N=C2c2cc([N+](=O)[O-])ccc2Cl)cc1, the TGI [8] is reported as over 100 µM, the TGI [9] is reported as over 100 µM and the TGI [1] is reported as over 100 µM. The TGI [3] was over 100 µM, the TGI [4] was over 100 µM and the TGI [10] was over 100 µM. It also gave a TGI [5] of over 100 µM, a TGI [6] of over 100 µM and a TGI [7] of over 100 µM.

In the case of CC(C)C(=O)[C@@]1(C)SC[C@H]2CCN=C21, the TGI [8] is reported as over 100 µM, the TGI [9] is reported as over 100 µM and the TGI [1] is reported as over 100 µM. It also gave a TGI [3] of over 100 µM, a TGI [4] of over 100 µM and a TGI [10] of over 100 µM. For the same molecule, the TGI [6] was over 100 µM and the TGI [7] was over 100 µM.

Nc1ccc2c(c1)N(C(=O)c1cc3cc(NC(=O)c4cc5ccccc5o4)ccc3[nH]1)CC2CCl (centres undefined) was tested, and the TGI [3] was 3.71 µM, the TGI [4] was over 38.3 µM and the TGI [10] was 0.287 µM. For the same molecule, the TGI [7] was 0.794 µM.

In the case of CCCCc1c(N(C)C)c(OC(C)=O)c(-c2cn(C)c3ccccc23)oc1=O, the TGI [8] is reported as over 100 µM, the TGI [3] is reported as over 100 µM and the TGI [4] is reported as over 100 µM. For the same molecule, the TGI [5] was 88.9 µM, the TGI [6] was 47.5 µM and the TGI [7] was 40.7 µM.

Work on CC(C)(C)[Si](OC1CC(n2cnc3c(N)ncnc32)OC1CO)(c1ccccc1)c1ccccc1 (centres undefined) yielded a TGI [8] of 41.7 µM, a TGI [9] of over 100 µM and a TGI [1] of over 100 µM. The TGI [3] was 28.5 µM, the TGI [4] was 34.8 µM and the TGI [10] was 43.9 µM. It also gave a TGI [5] of 35 µM and a TGI [6] of 36.7 µM.

With O=C(O)c1ccc(Nc2c3ccccc3nc3ccccc23)cc1 the TGI [8] was over 100 µM, the TGI [9] was over 100 µM and the TGI [1] was over 100 µM. For the same molecule, the TGI [3] was over 100 µM, the TGI [4] was over 100 µM and the TGI [10] was over 100 µM. It also gave a TGI [5] of over 100 µM, a TGI [6] of over 100 µM and a TGI [7] of over 100 µM.

OC1(C(F)(F)F)OCCN=C1C(F)(F)F (centres undefined) was tested, and the TGI [8] was over 100 µM, the TGI [9] was over 100 µM and the TGI [1] was over 100 µM. The TGI [2] was over 100 µM, the TGI [3] was over 100 µM and the TGI [4] was over 100 µM. The TGI [10] was over 100 µM, the TGI [5] was over 100 µM and the TGI [7] was over 100 µM.

CCOc1cc2c(OCc3ccccc3)cc3c4cc(OC)c(OC)cc4c[n+](C)c3c2cc1OC was tested, and the TGI [8] was over 100 µM, the TGI [9] was 21.6 µM and the TGI [1] was over 42.6 µM. It also gave a TGI [2] of 6.65 µM, a TGI [3] of over 100 µM and a TGI [4] of 44 µM. The TGI [10] was over 29.6 µM, the TGI [5] was 4.91 µM and the TGI [6] was 5.43 µM.

In the case of CCCC(=O)n1[nH]c(=O)n(-c2ccc(Cl)cc2)c1=O, the TGI [8] is reported as over 100 µM, the TGI [9] is reported as over 100 µM and the TGI [1] is reported as over 100 µM. It also gave a TGI [2] of over 100 µM, a TGI [3] of over 100 µM and a TGI [4] of over 100 µM. It also gave a TGI [10] of over 100 µM, a TGI [5] of over 100 µM and a TGI [7] of over 100 µM.

For COc1ccc(C2COc3cc(OC(C)=O)c(OC(C)=O)cc3C2)cc1 (centres undefined), the TGI [8] was 51.1 µM, the TGI [9] was 48.3 µM and the TGI [1] was 80 µM. The TGI [3] was 36.8 µM, the TGI [4] was 51.7 µM and the TGI [10] was 36.9 µM. It also gave a TGI [5] of 37 µM, a TGI [6] of 37.8 µM and a TGI [7] of 43.5 µM.

In the case of Nc1ccc(Oc2ccc(C34CC5CC6C3CC3CC4C(C5)C6(c4ccc(Oc5ccc(N)cc5)cc4)C3)cc2)cc1, the TGI [8] is reported as over 77.8 µM, the TGI [9] is reported as 38.9 µM and the TGI [1] is reported as 40.5 µM. The TGI [2] was 65.7 µM, the TGI [3] was over 100 µM and the TGI [4] was over 100 µM. It also gave a TGI [10] of 47.5 µM, a TGI [5] of over 72 µM and a TGI [7] of over 87.9 µM.

COC(=O)CCC1=CCC2(SC)C(=O)Nc3cccc1c32 (centres undefined) showed a TGI [8] of over 100 µM, a TGI [9] of over 100 µM and a TGI [2] of over 100 µM. For the same molecule, the TGI [3] was over 100 µM, the TGI [4] was over 100 µM and the TGI [10] was over 100 µM. The TGI [5] was over 100 µM, the TGI [6] was over 100 µM and the TGI [7] was over 100 µM.

C[N+](CCCl)(CCCl)Cc1cccc2cccc([N+](=O)[O-])c12 gave a TGI [8] of over 100 µM, a TGI [1] of over 100 µM and a TGI [2] of over 100 µM. It also gave a TGI [3] of over 100 µM, a TGI [4] of over 100 µM and a TGI [10] of over 100 µM. For the same molecule, the TGI [5] was over 100 µM, the TGI [6] was over 100 µM and the TGI [7] was over 100 µM.
